Experimental data as given in patent US5770573A, “CS-1 peptidomimetics, compositions and methods of using the same” (Cytel Corporation, priority 1995, dated 1998).
Square brackets hold non-standard residues; d marks the D form. Peptide text beside a SMILES is read from it. * marks the point of attachment. ξ: configuration not given here. Biotin = O=C1N[C@H]2[C@H](CS[C@H]2CCCCC(=O)*)N1; hPhe = N[C@@H](CCc1ccccc1)C(=O)O; ξAtc = NC1(C(=O)O)CCc2ccccc2C1; NMeL = CN[C@@H](CC(C)C)C(=O)O; Tle = CC(C)(C)[C@H](N)C(=O)O; Morpholide = C1CN(*)CCO1; Octanoyl = CCCCCCCC(=O)*; Piperidide = C1CCN(*)CC1; Pyrrolidide = C1CCN(*)C1; Cbz = O=C(OCc1ccccc1)*; PhAc = O=C(Cc1ccccc1)*; X4 = CCN(CC)C(=O)CO*; Ahx = NCCCCCC(=O)O; Sar = CNCC(=O)O

What follows are molecules tested against VLA-4 (Homo sapiens, UniProt P05556+P13612) (assay: In vitro binding inhibition of 51Cr-labeled Jurkat cells to solid phase-bound CS-1 compound (SEQ ID NO:1)). Settings: not given.
Format: cell-based
Parameters: inflammatory cells that contain the VLA-4 receptor [Jurkat cells; host or cells: Jurkat (human T lymphoblastic line)
Procedure: Binding inhibition is measured here as a concentration of compound that inhibits one-half the binding between a standard number of Jurkat cells and a standard amount of CS-1 compound bound to the surface of a microtiter plate well. Those concentrations are conveniently expressed as IC50 values, smaller numbers indicating a lower concentration required to inhibit 50 percent binding and therefore greater potency. Further specifics of this assay are provided hereinafter.
Jurkat cells (ATCC TIB 152), a human T lymphoblastic line, labeled with ^51 chromium were used to assay in vitro binding inhibition provided by various compounds discussed herein.
The plates were prepared as follows: The 25-mer CS-1 compound (SEQ ID NO:1) dissolved at 0.5-1 μg/ml in a buffer of 0.1M NaHCO3 at pH 9.5 that also contained 10 μg/ml of bovine serum albumin (BSA) or a conjugate of the CS-1 compound linked to […] (CS-1-OVA) dissolved at 1-2.5 μg/ml in the same buffer was used as the substrate. Each well of the microtiter plates was coated with 50 μl of substrate or buffer alone for controls. The wells were permitted to dry out completely and were then rinsed twice with PBS at pH 7.4. Non-specific binding sites of each well were then blocked using 200 μl per well of RPMI/1 percent BSA for two hours at room temperature.
Jurkat cells (3-5×10^6 cells) were placed into a 15 ml Falcon™ round-bottom tube with a cap. The tube was centrifuged, and the extra medium was then removed.
Two hundred microliters of a ^51 Cr labeling solution were added to the centrifuged cells and maintained in contact with the cells for 90-120 minutes in a warm room. […] Longer contact times provide a greater amount of labeling but lower cell viability.
The labeled cells are washed with (i) complete medium, (ii) 1 mM EDTA/PBS and then (iii) RPM1/1 percent BSA free of serum components. The cells are centrifuged after each washing. The cells are finally resuspended in serum-free RPMI/1 percent BSA at a concentration of 1×10^6 viable cells/ml, which provides a concentration that is diluted by one-half in the assay.
Inhibitor compounds are prepared as stock solutions at 20 mg/ml in DMSO in 1.5 ml cryogenic screwcap vials, and were stored at -70° C. Using Flow™ round-bottom or V-bottom microtiter plates, the inhibitor compounds were prepared at twice the assay concentration in RPMI/1 percent BSA at 60 μl/well.
Four initial dilutions were typically used.
The ^51 Cr-labeled cells ([…] at 60 μl/well) were then admixed with the diluted compound solutions. The admixtures were maintained at room temperature (about 22° C.) for 30 minutes.
One hundred microliters of each inhibitor compound/cell admixture were transferred to the substrate-coated wells. This was done in triplicate for each dilution. The resulting plates were incubated for 30 minutes at 37° C. and then washed gently three times with RPMI/1 percent BSA at 200 μl/well. Binding was observed microscopically, particularly after the second wash.
The bound cells were then lysed by the addition of a 0.5 percent solution of sodium dodecylsulfate in water at 100 μl/well. The resulting solutions were then processed for counting and calculation of IC50 values following usual procedures.
The data of Table 1 are normalized to the binding of SEQ ID NO: 3. […] Multiple assays for the same compound were averaged.

Chain of VLA-4 (P13612 34-1032): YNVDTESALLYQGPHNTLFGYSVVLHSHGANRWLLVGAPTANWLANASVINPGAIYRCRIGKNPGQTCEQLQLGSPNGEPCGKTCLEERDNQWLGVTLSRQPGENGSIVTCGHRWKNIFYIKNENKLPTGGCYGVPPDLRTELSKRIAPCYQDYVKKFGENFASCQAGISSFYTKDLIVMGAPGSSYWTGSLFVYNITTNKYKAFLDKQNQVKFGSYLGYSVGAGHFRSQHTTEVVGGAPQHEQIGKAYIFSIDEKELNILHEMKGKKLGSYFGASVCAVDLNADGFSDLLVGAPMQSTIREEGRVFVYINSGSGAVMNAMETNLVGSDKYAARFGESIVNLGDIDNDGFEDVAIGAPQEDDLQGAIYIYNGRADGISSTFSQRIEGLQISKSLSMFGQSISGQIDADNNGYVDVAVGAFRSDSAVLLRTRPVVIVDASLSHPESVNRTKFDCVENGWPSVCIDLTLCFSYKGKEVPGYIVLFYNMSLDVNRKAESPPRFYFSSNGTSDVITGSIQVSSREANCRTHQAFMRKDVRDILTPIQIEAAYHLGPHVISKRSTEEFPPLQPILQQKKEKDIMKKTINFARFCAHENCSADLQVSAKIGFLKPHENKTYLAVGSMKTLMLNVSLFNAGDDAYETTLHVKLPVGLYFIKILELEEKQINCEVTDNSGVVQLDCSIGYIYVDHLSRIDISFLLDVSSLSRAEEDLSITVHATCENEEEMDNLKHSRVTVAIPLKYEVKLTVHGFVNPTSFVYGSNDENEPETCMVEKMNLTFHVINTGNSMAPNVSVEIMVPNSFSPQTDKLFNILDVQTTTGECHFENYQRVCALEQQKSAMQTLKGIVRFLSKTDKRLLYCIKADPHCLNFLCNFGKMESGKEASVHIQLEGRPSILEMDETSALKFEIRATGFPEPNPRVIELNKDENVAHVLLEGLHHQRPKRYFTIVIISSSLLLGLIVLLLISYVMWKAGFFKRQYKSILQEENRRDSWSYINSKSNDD
Chain of VLA-4 (P05556 21-798): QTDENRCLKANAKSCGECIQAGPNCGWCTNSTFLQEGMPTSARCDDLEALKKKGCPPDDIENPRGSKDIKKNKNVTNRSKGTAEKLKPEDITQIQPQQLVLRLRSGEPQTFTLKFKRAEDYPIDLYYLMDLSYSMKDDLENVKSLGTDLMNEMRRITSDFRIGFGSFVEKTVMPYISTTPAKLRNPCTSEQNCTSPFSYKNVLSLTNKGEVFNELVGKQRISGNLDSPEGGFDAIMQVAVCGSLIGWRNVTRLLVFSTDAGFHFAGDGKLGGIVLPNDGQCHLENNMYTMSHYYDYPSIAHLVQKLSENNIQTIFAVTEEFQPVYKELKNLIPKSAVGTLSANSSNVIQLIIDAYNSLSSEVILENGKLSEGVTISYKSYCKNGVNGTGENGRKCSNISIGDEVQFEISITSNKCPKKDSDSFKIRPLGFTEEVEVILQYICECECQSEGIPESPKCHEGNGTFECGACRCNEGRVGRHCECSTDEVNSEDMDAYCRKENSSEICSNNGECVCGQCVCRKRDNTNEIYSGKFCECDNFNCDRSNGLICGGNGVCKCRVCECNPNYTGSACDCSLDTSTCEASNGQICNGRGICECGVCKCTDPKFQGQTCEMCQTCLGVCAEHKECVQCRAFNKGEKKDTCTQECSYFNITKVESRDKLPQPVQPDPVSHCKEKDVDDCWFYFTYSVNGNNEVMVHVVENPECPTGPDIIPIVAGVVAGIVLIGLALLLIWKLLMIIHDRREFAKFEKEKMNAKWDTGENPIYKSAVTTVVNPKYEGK

Relative Potency	Relative Potency (prodrug compound)	SMILES
0		CCCCCCCC(=O)N[C@@H](CC(=O)O)C(=O)N[C@@H](Cc1ccccc1)C(=O)N1CCC[C@@H]1C(N)=O [1056.12] (Octanoyl-Asp-Phe-[dP]-NH2)
43.7		CC(C)C[C@@H](C(=O)N[C@@H](CC(=O)O)C(=O)N[C@@H](Cc1ccccc1)C(=O)N1CCC[C@@H]1C(N)=O)n1c(=O)[nH]c2ccccc2c1=O [896.63]
5.32		CC(C)C[C@H](NC(=O)CCc1ccccc1)C(=O)N[C@@H](CC(=O)O)C(=O)N[C@H](C(=O)N1CCC[C@@H]1C(N)=O)C(C)C [896.40]
3.76		CC(C)C[C@H](NC(=O)CC1CCCCC1)C(=O)N[C@@H](CC(=O)O)C(=O)N[C@H](C(=O)N1CCC[C@@H]1C(N)=O)C(C)C [896.48]
0		CC(C)[C@@H]1CC[C@@H](C)C[C@H]1OCC(=O)N[C@@H](CC(=O)O)C(=O)N[C@@H](Cc1ccccc1)C(=O)N1CCC[C@@H]1C(N)=O [1056.06]
	74.5	CC(C)C[C@H](NC(=O)[C@H](Cc1ccccc1)NC(=O)CCCCCNC(=O)CCCC[C@@H]1SC[C@@H]2NC(=O)N[C@@H]21)C(=O)N[C@@H](CC(=O)O)C(=O)N[C@@H](Cc1ccccc1)C(=O)N1CCC[C@@H]1C(N)=O [951.13] ({Biotin-Ahx}-FLDF[dP]-NH2)
0		NC(=O)[C@H]1CCCN1C(=O)[C@H](Cc1ccccc1)NC(=O)[C@H](CC(=O)O)NC(=O)CCCCCC1CCCCC1 [1056.07]
.22		CC(=O)N[C@@H](CO)C(=O)N[C@@H](Cc1ccccc1)C(=O)N[C@@H](CC(=O)O)C(=O)N[C@@H](Cc1ccccc1)C(=O)N[C@@H](CO)C(N)=O [951.46] (Ac-SFDFS-NH2)
3.29		CC(C)C[C@H](NC(=O)C(C)(C)C)C(=O)N[C@@H](CC(=O)O)C(=O)N[C@H](C(=O)N1CCC[C@H]1C(N)=O)C(C)C [926.01]
2.5		CC(C)C[C@H](NC(=O)c1ccc2ccccc2c1)C(=O)N[C@@H](CC(=O)O)C(=O)N[C@H](C(=O)N1CCC[C@@H]1C(N)=O)C(C)C [896.44]
0.01		CC(C)C[C@H](N)C(=O)N[C@@H](CC(=O)O)C(=O)N[C@@H](Cc1ccccc1)C(N)=O [926.31] (H-Leu-Asp-Phe-NH2)
2		CC[C@H](C)[C@H](N)C(=O)N[C@@H](CC(C)C)C(=O)N[C@@H](CC(=O)O)C(=O)N[C@H](C(=O)N1CCC[C@H]1C(=O)O)C(C)C [886.05] (H-ILDVP-OH)
0		CC(C)=CCCC(C)CC(=O)N[C@@H](CC(=O)O)C(=O)N[C@@H](Cc1ccccc1)C(=O)N1CCC[C@@H]1C(N)=O (stereo partly drawn) [1056.10]
5.01		CC(C)CCC(=O)N[C@@H](CC(C)C)C(=O)N[C@@H](CC(=O)O)C(=O)N[C@H](C(=O)N1CCC[C@@H]1C(N)=O)C(C)C [896.47]
61.8		CC(C)C[C@H](NC(=O)[C@@H]1CCCN1)C(=O)N[C@@H](CC(=O)O)C(=O)N[C@@H](Cc1ccccc1)C(=O)N1CCC[C@@H]1C(N)=O [951.12] (H-PLDF[dP]-NH2)
.08		CC[C@H](C)[C@H](N)C(=O)N[C@@H](Cc1ccccc1)C(=O)N[C@@H](CC(=O)O)C(=O)N[C@H](C(=O)N1CCC[C@H]1C(N)=O)C(C)C [926.07] (H-IFDVP-NH2)
34.4		CC(C)C[C@H](NC(=O)OCc1ccccc1)C(=O)N[C@@H](CC(=O)O)C(=O)N[C@@H](Cc1ccccc1)C(=O)N1CCC[C@@H]1C(N)=O [1056.01] (Cbz-LDF[dP]-NH2)
.21		CC[C@H](C)[C@H](N)C(=O)N[C@@H](CC(C)C)C(=O)N[C@@H](CC(=O)O)C(=O)N[C@H](C(=O)N1CCC[C@H]1C(N)=O)[C@@H](C)CC [926.17] (H-ILDIP-NH2)
1.96		CC(C)CC(C(=O)NCc1ccccc1)C(=O)N[C@@H](CC(=O)O)C(=O)N[C@@H](Cc1ccccc1)C(=O)N1CCC[C@@H]1C(N)=O (stereo partly drawn) [1034.01]

SMILES	Relative Potency	Relative Potency (prodrug compound)
CC(C)CN(CC(=O)Nc1ccccc1)C(=O)CN(CC(=O)O)C(=O)CNC(=O)C1CCCC1 [1032.01]	.42	
CC(C)C[C@@H]1NC(=O)N([C@@H](CC(=O)O)C(=O)N[C@@H](Cc2ccccc2)C(=O)N2CCCCC2)C1=O [1047.05]	12.5	
CC(C)C[C@H](N)C(=O)N[C@@H](CC(=O)O)C(=O)N[C@@H](Cc1ccccc1)C(=O)N1CCCCC1 [1047.09] (H-Leu-Asp-Phe-Piperidide)	0.01	

Same assay, conditions: binding inhibition potency relative to standard compound of SEQ ID NO:3 = 1 (normalized IC50); about one-tenth or less assigned zero

SMILES	Relative Potency
O=C(O)CC(C(=O)N[C@@H](Cc1ccccc1)C(=O)N1CCCCC1)N1CC[C@H](NC(=O)Cc2ccccc2)C1=O (stereo partly drawn) [1057.01]	.88
CC(C)C[C@H](NC(=O)Cc1ccccc1)C(=O)N[C@@H](CC(=O)O)C(=O)N[C@@H](Cc1ccccc1)C(=O)N1CC[N+](C)(C)CC1 [1111.08]	218
CC(C)C[C@H](NC(=O)Cc1ccccc1)C(=O)N[C@@H](CC(=O)O)C(=O)N[C@@H](CC(C)C)C(=O)N1CCOCC1 [997.20] (PhAc-Leu-Asp-Leu-Morpholide)	291
CC(C)C[C@H](NC(=O)Cc1ccccc1)C(=O)N[C@@H](CC(=O)O)C(=O)NC1CCCCNC1=O (stereo partly drawn) [1043.02]	26.8
CC(C)C[C@H](NC(=O)Cc1ccccc1)C(=O)N[C@@H](CC(=O)O)C(=O)N[C@@H](Cc1ccccc1)C(=O)N1CCN(CC(N)=O)CC1 [1111.09]	324
CC(C)C[C@H](NC(=O)Cc1ccccc1)C(=O)N[C@@H](CC(=O)O)C(=O)N[C@@H](CCc1ccccc1)C(=O)N1CCC[C@@H]1C(N)=O [1062.03] (PhAc-LD[hPhe][dP]-NH2)	93.9
CC(C)C[C@H](NC(=O)Cc1ccccc1)C(=O)N[C@@H](CC(=O)O)C(=O)N[C@@H](Cc1ccccc1)C(=O)N1CCCC1 [951.15] (PhAc-Leu-Asp-Phe-Pyrrolidide)	121
CC(C)C[C@H](NC(=O)Cc1ccccc1)C(=O)N[C@@H](CC(=O)O)C(=O)N[C@H](C(=O)N1CCC[C@@H]1C(N)=O)C(C)(C)C [896.56] (PhAc-LD[Tle][dP]-NH2)	1.72
CC(C)C[C@H](NC(=O)Cc1ccccc1)C(=O)N[C@@H](CC(=O)O)C(=O)NC1(C(=O)N2CCC[C@@H]2C(N)=O)CCc2ccccc2C1 (stereo partly drawn) [896.65] (PhAc-LD[ξAtc][dP]-NH2)	1.25
CC(C)C[C@@H](C(=O)N[C@@H](CC(=O)O)C(=O)N[C@@H](Cc1ccccc1)C(=O)N1CCC[C@@H]1C(N)=O)N(C)C(=O)Cc1ccccc1 [1190.07] (PhAc-[NMeL]DF[dP]-NH2)	318
CC(C)C[C@H](NC(=O)Cc1ccccc1)C(=O)N[C@@H](CC(=O)O)C(=O)N[C@@H](Cc1ccccc1)C(=O)N(C)CC(N)=O [1190.04] (PhAc-LDF[Sar]-NH2)	196
CC(C)C[C@H](NC(=O)c1cccc2ccccc12)C(=O)N[C@@H](CC(=O)O)C(=O)N[C@H](C(=O)N1CCC[C@@H]1C(N)=O)C(C)C [896.43]	4.38
CC(C)C[C@H](NC(=O)Cc1ccccc1)C(=O)N[C@@H](CC(=O)O)C(=O)N[C@@H](Cc1ccc(O)cc1)C(=O)N1CCC[C@@H]1C(N)=O [896.61] (PhAc-LDY[dP]-NH2)	612
CC(C)C[C@H](NC(=O)Cc1ccccc1)C(=O)N[C@@H](CC(=O)O)C(=O)NCC(=O)N1CCOCC1 [997.16] (PhAc-Leu-Asp-Gly-Morpholide)	9.23
Cc1ccc(S(=O)(=O)N2CCN(C(=O)[C@H](Cc3ccccc3)NC(=O)[C@H](CC(=O)O)NC(=O)[C@H](CC(C)C)NC(=O)Cc3ccccc3)CC2)cc1 [1111.01]	363
CC(C)C[C@H](NC(=O)Cc1ccccc1)C(=O)N[C@@H](CC(=O)O)C(=O)NC1Cc2ccccc2NC1=O (stereo partly drawn) [997.08]	23.5

Same assay, conditions: relative to SEQ ID NO:3 = 1; potency before the prodrug compound is enzymatically converted to an active form

SMILES	Relative Potency (prodrug compound)
CCN(CC)C(=O)COC(=O)C[C@H](NC(=O)[C@H](CC(C)C)NC(=O)Cc1ccccc1)C(=O)N[C@@H](Cc1ccccc1)C(=O)N1CCC[C@@H]1C(N)=O [1068.13] (PhAc-LD(X4)F[dP]-NH2)	0
